Tests used:
Type in all cases: physicochemical
[1] = Solvent residue of the crystal forms determined by gas chromatography
Protocol: The solvent residue of the crystal form of the compound represented by formula I was determined by gas chromatography, as shown in the table below.

[2] = Crystal form conversion on stirring in ethyl acetate at room temperature; conditions: 1.0 g in 1.5 mL ethyl acetate, stirred at room temperature, filtered, dried under vacuum
Protocol: 1.0 g of the crystal form I of the compound represented by formula I was added to 1.5 mL of ethyl acetate, and the mixture was stirred at room temperature, filtered, and dried under vacuum.
1.0 g of the crystal form III of the compound represented by formula I was added to 1.5 mL of ethyl acetate, and the mixture was stirred at room temperature, filtered, and dried under vacuum.

[3] = Dissolution of the raw material in 50% tert-butanol solution when preparing the lyophilized composition; conditions: 4.36% (w/v) in 50% tert-butanol with 5% mannitol, stirred at room temperature
Protocol: Tert-butanol and water were mixed at a volume ratio of 1:1 to form a 50% tert-butanol solution. 90% of the target volume of the solution was taken, and 5% (mass volume percentage) of mannitol and 4.36% of the raw material of the compound represented by formula I were added. The mixture was stirred at room temperature for dissolution (dissolution being considered as the absence of significant blocky or flocculent insoluble substances in the solution). The pH was adjusted to 5 with dilute hydrochloric acid or sodium hydroxide, filtration was performed with a […] organic filtration membrane to obtain a clear solution, and the volume of the clear solution was made constant with 50% tert-butanol. The above-mentioned solution was stored at 4° C. before subpackaging. After subpackaging according to the target volume, half of a stopper was pressed, and a freeze-drying procedure was run. After the completion of the procedure, nitrogen was filled, the remaining stopper was pressed, and the freeze-dried compounds were taken out of the box.

Row | Solvent residue: Ethyl acetate [1] | Solvent residue: Ethylene glycol dimethyl ether [1] | Solvent residue: Isopropyl ether [1] | Crystal form after slurrying [2] | Solvent residue, comparison of the crystal forms [1] | Solvent residue: Methyl tert-butyl ether [1] | Solvent residue: 1,4-Dioxane [1] | Structure (SMILES) | Dissolution behaviour of the raw material [3]
1 | 0.0293% | Not detected | 12.0% | conversion to the crystal form II | – | – | – | C[C@@H](OC[C@@]1(c2ccccc2)CC[C@]2(CCC(=O)N2)CN1C(=O)OCOP(=O)(O)O)c1cc(C(F)(F)F)cc(C(F)(F)F)c1 [Crystal form I] | –
2 | – | – | – | – | – | – | – | C[C@@H](OC[C@@]1(c2ccccc2)CC[C@]2(CCC(=O)N2)CN1C(=O)OCOP(=O)(O)O)c1cc(C(F)(F)F)cc(C(F)(F)F)c1 [amorphous form] | agglomerated in a large amount in the solution, resulting in the inability to completely dissolve the raw material
3 | 0.0105% | Not detected | – | – | lowest solvent residue | 0.1867% | – | C[C@@H](OC[C@@]1(c2ccccc2)CC[C@]2(CCC(=O)N2)CN1C(=O)OCOP(=O)(O)O)c1cc(C(F)(F)F)cc(C(F)(F)F)c1 [Crystal form II] | dissolved faster, no agglomeration occurred
4 | – | Not detected | – | conversion to the crystal form II | – | – | 6.3% | C[C@@H](OC[C@@]1(c2ccccc2)CC[C@]2(CCC(=O)N2)CN1C(=O)OCOP(=O)(O)O)c1cc(C(F)(F)F)cc(C(F)(F)F)c1 [Crystal form III] | –
